Data taken from ChEMBL document CHEMBL2057108 (Bioorg Med Chem Lett, 2012).
Active and inactive are the calls of the source. The rule behind the calls is not given here.

Legend:
[1] = target: 5-hydroxytryptamine receptor 6 (Homo sapiens) (UniProt P50406); experiment: Inhibition of 5HT6 receptor at 10 uM
[2] = target: 5-hydroxytryptamine receptor 1D (Homo sapiens) (UniProt P28221); experiment: Inhibition of 5HT1D receptor at 10 uM
[3] = target: T1, 5-hydroxytryptamine receptor 4 (Homo sapiens, UniProt Q13639); experiment: 5-HT4C receptor-mediated exchange of GDP for europium labeled GTP (pEC50)
[4] = target: T1, 5-hydroxytryptamine receptor 4; experiment: 5-HT4C receptor-mediated exchange of GDP for europium labeled GTP (intrinsic activity)
[5] = Permeability across human Caco2 cells; format: ADME, cell-based; settings: Caco-2, read-out: Kp
[6] = target: T1, 5-hydroxytryptamine receptor 4; experiment: Intrinsic activity at human 5HT4C receptor expressed in a cell line expressing receptor at 10 fold physiological-level assessed as cAMP accumulation relative to 5HT; format: functional
[7] = target: T1, 5-hydroxytryptamine receptor 4; experiment: Intrinsic activity at human 5HT4C receptor expressed at 100 fold physiological-level in HEK293 cells assessed as cAMP accumulation relative to 5HT; format: functional, cell-based
[8] = species: Homo sapiens; experiment: Selectivity ratio of Ki for human 5HT3A receptor to Ki for human 5HT4C receptor
[9] = target: T1, 5-hydroxytryptamine receptor 4; experiment: Agonist activity at human 5HT4C receptor expressed in a cell line expressing receptor at 10 fold physiological-level assessed as cAMP accumulation; format: functional
[10] = Cmax in Sprague-Dawley rat at 5 mg/kg, po; format: ADME, organism-based; set-up: dose 5 mg/kg, route oral; settings: in vivo
[11] = target: 5-hydroxytryptamine receptor 5A (Homo sapiens) (UniProt P47898); experiment: Inhibition of 5HT5A receptor at 10 uM
[12] = target: 5-hydroxytryptamine receptor 4 (Cavia porcellus, UniProt O70528); experiment: Agonist activity at 5HT4 receptor in guinea pig colon assessed as longitudinal muscle plexus contraction
[13] = AUC (0 to t) in Sprague-Dawley rat at 5 mg/kg, po; format: ADME, organism-based; set-up: dose 5 mg/kg, route oral; settings: plasma
[14] = target: 5-hydroxytryptamine receptor 2A (Homo sapiens) (UniProt P28223); experiment: Inhibition of 5HT2A receptor at 10 uM
[15] = target: T2, 5-hydroxytryptamine receptor 1A (Homo sapiens) (UniProt P08908); experiment: Inhibition of 5HT1A receptor at 10 uM
T2 sequence (whole entry): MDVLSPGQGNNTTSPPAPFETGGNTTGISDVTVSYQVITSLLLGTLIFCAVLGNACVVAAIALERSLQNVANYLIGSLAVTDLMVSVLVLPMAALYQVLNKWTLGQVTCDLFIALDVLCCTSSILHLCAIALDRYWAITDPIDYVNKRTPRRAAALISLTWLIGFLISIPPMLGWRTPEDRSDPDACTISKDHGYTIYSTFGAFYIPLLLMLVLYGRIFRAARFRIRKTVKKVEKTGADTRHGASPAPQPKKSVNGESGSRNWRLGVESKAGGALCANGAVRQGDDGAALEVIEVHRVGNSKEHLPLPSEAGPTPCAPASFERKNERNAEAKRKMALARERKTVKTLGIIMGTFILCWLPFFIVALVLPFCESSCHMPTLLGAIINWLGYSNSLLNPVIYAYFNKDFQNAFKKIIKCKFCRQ

[16] = target: T1, 5-hydroxytryptamine receptor 4; experiment: Agonist activity at human 5HT4C receptor expressed at 100 fold physiological-level in HEK293 cells assessed as cAMP accumulation; format: functional, cell-based
[17] = Half life in Sprague-Dawley rat at 5 mg/kg, po; format: ADME, organism-based; set-up: dose 5 mg/kg, route oral; settings: in vivo
[18] = Oral bioavailability in Sprague-Dawley rat at 5 mg/kg; format: ADME, organism-based; settings: in vivo
[19] = target: T3, 5-hydroxytryptamine receptor 3A (Homo sapiens) (UniProt P46098); experiment: Inhibition of 5HT3A receptor at 10 uM
T3 sequence (whole entry): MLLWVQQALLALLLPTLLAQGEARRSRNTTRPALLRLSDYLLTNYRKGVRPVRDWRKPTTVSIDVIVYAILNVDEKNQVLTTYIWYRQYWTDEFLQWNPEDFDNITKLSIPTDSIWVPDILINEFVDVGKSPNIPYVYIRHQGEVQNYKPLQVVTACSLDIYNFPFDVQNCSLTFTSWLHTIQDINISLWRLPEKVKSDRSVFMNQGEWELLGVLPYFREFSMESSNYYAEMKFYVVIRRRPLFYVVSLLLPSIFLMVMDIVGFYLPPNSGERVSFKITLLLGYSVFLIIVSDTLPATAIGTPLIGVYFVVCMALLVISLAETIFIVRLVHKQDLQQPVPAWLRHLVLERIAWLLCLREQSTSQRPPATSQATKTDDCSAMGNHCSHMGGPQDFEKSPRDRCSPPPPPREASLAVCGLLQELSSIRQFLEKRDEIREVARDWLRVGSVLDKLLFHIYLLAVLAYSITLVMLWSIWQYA

[20] = system: Cavia porcellus; experiment: Agonist activity at 5HT4 receptor in sc dosed guinea pig assessed as decrease in colonic transit time of carmine red dye after 60 mins relative to vehicle treated control; format: functional, organism-based
[21] = system: Rattus norvegicus; experiment: 5-HT4 receptor-mediated esophageal relaxation in anesthetized rat (following intraduodenal administration) using digital sonomicrometry; format: functional, organism-based; settings: Sprague-Dawley
[22] = target: 5-hydroxytryptamine receptor 7 (Homo sapiens) (UniProt P34969); experiment: Inhibition of 5HT7 receptor at 10 uM
[23] = target: 5-hydroxytryptamine receptor 2B (Homo sapiens) (UniProt P41595); experiment: Inhibition of 5HT2B receptor at 10 uM
[24] = target: 5-hydroxytryptamine receptor 1B (Homo sapiens) (UniProt P28222); experiment: Inhibition of 5HT1B receptor at 10 uM
[25] = target: hERG (KCNH2) (Homo sapiens, UniProt Q12809); experiment: Inhibition of human ERG expressed in CHO cells at 3 uM; format: cell-based; settings: CHO cells expressing human ERG
[26] = target: T4, 5-hydroxytryptamine receptor 2C (Homo sapiens) (UniProt P28335); experiment: Inhibition of 5HT2C receptor at 10 uM
T4 sequence (whole entry): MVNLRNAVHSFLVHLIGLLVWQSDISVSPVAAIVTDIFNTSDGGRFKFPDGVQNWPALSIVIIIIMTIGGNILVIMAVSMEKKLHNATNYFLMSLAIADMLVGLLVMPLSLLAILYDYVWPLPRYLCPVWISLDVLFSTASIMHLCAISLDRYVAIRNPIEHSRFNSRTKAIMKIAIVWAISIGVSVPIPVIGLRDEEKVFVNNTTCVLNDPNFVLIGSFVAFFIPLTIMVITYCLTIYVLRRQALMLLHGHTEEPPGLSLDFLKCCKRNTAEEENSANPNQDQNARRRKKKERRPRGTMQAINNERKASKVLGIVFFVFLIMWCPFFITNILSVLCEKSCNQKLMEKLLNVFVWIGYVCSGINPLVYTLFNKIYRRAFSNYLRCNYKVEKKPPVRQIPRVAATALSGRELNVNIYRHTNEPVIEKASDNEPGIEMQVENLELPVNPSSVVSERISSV

[27] = system: Rattus norvegicus; experiment: 5-HT4 receptor-mediated esophageal relaxation in anesthetized rat (following i.v. administration) using digital sonomicrometry; format: functional; settings: Sprague-Dawley; for ED50: iv
[28] = target: T1, 5-hydroxytryptamine receptor 4; experiment: biochemical
Description: Displacement of [3H]GR113808 from human recombinant 5HT4C receptor expressed in HEK293 cells

[29] = (§1) Half life in rat liver microsomes; format: ADME, Microsome; settings: liver microsomes
[30] = system: Liver microsomes; experiment: as §1; format: ADME, Microsome; settings: microsomes

Sequence of hERG (KCNH2) (Q12809 whole entry): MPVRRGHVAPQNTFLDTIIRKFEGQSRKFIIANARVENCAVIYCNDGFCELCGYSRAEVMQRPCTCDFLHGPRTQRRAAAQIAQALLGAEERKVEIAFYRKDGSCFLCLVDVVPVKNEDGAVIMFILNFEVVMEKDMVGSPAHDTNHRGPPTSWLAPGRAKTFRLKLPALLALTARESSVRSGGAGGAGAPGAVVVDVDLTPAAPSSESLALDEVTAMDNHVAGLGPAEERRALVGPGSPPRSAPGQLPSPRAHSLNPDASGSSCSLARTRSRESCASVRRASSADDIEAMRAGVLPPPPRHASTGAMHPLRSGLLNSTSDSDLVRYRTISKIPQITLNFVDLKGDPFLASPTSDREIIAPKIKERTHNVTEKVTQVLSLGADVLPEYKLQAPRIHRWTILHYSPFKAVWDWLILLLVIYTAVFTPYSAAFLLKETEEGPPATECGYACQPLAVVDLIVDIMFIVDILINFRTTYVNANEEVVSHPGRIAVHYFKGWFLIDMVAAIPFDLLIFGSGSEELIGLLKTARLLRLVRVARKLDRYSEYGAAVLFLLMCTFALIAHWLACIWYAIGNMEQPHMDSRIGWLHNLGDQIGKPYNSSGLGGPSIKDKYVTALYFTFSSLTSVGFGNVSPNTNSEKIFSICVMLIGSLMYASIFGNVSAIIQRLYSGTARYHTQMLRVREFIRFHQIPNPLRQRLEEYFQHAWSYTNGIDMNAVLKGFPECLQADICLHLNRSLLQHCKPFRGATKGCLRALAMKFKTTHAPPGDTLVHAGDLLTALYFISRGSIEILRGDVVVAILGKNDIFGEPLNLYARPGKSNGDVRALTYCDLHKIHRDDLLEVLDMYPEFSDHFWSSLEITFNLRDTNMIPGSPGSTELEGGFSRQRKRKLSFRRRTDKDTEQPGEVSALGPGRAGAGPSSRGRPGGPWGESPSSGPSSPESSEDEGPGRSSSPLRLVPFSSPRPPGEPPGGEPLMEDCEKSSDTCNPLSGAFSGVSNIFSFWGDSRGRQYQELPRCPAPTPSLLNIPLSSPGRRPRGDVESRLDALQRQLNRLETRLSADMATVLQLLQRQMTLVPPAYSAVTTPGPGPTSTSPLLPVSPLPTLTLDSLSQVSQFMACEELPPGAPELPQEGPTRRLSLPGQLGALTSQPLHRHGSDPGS
T1 sequence (Q13639 whole entry): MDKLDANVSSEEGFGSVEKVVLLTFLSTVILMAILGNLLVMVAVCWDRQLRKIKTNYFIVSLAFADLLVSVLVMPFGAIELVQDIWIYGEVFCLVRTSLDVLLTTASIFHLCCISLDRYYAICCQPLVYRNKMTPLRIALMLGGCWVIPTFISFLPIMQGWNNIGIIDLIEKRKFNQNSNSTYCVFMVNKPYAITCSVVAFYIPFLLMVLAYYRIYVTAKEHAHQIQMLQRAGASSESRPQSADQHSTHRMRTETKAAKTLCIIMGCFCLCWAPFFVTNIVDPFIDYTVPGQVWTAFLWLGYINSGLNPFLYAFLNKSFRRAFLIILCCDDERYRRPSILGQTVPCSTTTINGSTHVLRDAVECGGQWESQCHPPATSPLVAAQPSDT
Sequence of 5-hydroxytryptamine receptor 5A (Homo sapiens) (P47898 whole entry): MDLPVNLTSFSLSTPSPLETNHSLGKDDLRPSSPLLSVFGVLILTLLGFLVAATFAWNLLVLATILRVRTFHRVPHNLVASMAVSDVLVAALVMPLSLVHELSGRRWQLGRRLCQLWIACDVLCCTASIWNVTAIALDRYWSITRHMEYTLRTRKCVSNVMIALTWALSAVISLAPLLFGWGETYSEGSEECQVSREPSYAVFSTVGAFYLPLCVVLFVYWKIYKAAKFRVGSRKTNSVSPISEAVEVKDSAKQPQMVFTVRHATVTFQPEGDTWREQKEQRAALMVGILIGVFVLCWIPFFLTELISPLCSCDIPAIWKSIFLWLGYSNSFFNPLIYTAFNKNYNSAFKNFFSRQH
Sequence of 5-hydroxytryptamine receptor 1D (Homo sapiens) (P28221 whole entry): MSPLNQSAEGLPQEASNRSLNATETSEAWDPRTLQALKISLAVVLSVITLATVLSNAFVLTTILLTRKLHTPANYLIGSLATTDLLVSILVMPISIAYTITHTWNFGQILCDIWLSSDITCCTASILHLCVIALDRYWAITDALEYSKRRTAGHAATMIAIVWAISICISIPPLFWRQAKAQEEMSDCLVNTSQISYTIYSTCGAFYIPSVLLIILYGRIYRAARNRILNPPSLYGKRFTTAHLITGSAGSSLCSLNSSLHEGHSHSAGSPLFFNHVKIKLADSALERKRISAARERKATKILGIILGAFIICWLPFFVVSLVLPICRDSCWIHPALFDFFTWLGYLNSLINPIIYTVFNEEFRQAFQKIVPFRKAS
Sequence of 5-hydroxytryptamine receptor 6 (Homo sapiens) (P50406 whole entry): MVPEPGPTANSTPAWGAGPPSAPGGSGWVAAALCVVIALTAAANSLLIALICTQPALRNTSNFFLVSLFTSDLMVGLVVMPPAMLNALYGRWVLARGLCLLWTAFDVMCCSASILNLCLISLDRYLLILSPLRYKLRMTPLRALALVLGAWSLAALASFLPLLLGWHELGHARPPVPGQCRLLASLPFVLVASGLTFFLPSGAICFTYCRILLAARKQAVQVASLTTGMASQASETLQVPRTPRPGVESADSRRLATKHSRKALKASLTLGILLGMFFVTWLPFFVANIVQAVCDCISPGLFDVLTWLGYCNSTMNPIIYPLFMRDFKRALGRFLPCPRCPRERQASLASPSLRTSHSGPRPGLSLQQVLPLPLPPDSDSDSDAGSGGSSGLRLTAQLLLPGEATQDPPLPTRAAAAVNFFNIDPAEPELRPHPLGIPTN
Sequence of 5-hydroxytryptamine receptor 7 (Homo sapiens) (P34969 whole entry): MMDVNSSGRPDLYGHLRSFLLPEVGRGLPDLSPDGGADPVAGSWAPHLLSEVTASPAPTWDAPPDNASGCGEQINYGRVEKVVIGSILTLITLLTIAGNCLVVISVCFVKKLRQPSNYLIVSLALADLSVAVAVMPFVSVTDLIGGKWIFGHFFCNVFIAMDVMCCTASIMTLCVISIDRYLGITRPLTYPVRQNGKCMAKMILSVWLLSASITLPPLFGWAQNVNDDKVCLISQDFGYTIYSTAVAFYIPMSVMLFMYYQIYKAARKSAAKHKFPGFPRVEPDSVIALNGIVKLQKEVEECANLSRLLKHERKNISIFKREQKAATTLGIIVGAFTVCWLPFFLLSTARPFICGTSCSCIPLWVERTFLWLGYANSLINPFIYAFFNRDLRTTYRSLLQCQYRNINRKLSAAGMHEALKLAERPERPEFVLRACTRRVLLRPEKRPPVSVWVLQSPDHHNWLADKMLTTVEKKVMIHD
Sequence of 5-hydroxytryptamine receptor 2B (Homo sapiens) (P41595 whole entry): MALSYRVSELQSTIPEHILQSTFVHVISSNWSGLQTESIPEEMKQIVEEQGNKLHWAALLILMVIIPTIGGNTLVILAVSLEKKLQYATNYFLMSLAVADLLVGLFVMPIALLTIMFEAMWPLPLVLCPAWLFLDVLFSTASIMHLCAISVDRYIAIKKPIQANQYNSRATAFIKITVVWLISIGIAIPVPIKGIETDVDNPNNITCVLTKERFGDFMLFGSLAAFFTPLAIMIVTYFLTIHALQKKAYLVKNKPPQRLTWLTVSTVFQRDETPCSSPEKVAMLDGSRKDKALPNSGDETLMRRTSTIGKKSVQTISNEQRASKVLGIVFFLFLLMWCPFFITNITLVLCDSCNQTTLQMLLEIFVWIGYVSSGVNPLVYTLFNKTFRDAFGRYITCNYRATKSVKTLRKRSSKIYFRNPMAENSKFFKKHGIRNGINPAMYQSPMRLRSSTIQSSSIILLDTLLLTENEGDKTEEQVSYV
Sequence of 5-hydroxytryptamine receptor 2A (Homo sapiens) (P28223 whole entry): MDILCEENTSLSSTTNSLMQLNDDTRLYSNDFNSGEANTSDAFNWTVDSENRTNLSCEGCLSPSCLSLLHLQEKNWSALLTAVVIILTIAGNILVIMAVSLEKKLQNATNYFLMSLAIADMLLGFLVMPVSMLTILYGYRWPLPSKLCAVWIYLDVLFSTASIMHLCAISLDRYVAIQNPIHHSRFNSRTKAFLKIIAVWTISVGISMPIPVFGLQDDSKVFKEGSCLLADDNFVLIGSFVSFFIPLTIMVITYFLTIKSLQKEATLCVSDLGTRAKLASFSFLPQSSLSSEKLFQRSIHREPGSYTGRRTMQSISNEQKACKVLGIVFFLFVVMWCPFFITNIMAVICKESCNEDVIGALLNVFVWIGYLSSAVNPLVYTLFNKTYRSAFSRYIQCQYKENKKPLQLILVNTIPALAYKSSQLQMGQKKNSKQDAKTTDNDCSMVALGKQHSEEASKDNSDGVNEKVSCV
Sequence of 5-hydroxytryptamine receptor 4 (Cavia porcellus, UniProt O70528) (O70528 whole entry): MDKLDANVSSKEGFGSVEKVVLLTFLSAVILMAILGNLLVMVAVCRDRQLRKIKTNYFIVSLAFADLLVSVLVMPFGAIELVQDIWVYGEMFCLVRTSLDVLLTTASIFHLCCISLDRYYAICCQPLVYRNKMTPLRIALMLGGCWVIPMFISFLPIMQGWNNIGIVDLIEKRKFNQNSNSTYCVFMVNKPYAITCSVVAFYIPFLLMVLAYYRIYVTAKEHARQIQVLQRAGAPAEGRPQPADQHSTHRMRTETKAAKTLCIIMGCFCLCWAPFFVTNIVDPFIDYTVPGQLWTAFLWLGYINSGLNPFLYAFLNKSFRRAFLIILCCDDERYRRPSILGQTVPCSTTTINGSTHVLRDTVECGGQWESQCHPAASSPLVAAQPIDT
Sequence of 5-hydroxytryptamine receptor 1B (Homo sapiens) (P28222 whole entry): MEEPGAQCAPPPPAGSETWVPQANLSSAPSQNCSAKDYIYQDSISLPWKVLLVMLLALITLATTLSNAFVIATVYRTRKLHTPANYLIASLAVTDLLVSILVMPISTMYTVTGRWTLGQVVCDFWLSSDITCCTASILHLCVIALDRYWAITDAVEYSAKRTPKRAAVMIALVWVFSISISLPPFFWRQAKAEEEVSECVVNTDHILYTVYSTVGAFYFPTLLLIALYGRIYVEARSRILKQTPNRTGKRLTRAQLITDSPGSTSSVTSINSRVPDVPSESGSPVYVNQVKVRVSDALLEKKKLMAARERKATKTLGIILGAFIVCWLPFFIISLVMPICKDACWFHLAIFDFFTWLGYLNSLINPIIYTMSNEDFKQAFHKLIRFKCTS

Structure (SMILES): CC(=O)N1CCN(CCN2[C@@H]3CC[C@H]2C[C@@H](NC(=O)c2nn(C(C)C)c4ccccc24)C3)CC1
- inhibition [1]: < 50%
- inhibition [2]: < 50%
- EC50 [3]: 6.31 nM
- Intrinsic activity [4]: 57%
- Papp [5]: 31 ×10⁻⁶ cm/s
- Intrinsic activity [6]: 53%
- Intrinsic activity [7]: 83%
- Ratio Ki [8]: 980
- EC50 [9]: 10 nM
- Cmax [10]: 254 ng/mL
- inhibition [11]: < 50%
- EC50 [12]: 10 nM
- AUC(0-t) [13]: 730 ng·h/mL
- inhibition [14]: < 50%
- inhibition [15]: < 50%
- EC50 [16]: 2.51 nM
- half-life [17]: 3.2 h
- bioavailability [18]: > 100%
- inhibition [19]: < 50%
- Activity [20]: Active
- Activity [21]: Dose-dependent effect
- inhibition [22]: < 50%
- inhibition [23]: < 50%
- inhibition [24]: < 50%
- inhibition at 3 µM [25]: 9%
- inhibition [26]: < 50%
- Activity [27]: Dose-dependent effect
- ED50 [27]: 0.0378 mg/kg
- Ki [28]: 10 nM
- half-life [29]: > 1.5 h

Structure (SMILES): CC(C)n1nc(C(=O)N[C@H]2C[C@H]3CC[C@@H](C2)N3)c2ccccc21
- Ratio Ki [8]: < 1

Structure (SMILES): CC(C)n1nc(C(=O)N[C@H]2C[C@H]3CC[C@@H](C2)N3CCCCCCN2CCC(CNS(C)(=O)=O)CC2)c2ccccc21
- Intrinsic activity [7]: 91%
- Ratio Ki [8]: 4.3
- EC50 [16]: 1.58 nM
- Ki [28]: 1.58 nM

Structure (SMILES): CC(C)n1nc(C(=O)N[C@H]2C[C@H]3CC[C@@H](C2)N3C[C@H](O)CN2CCN(S(C)(=O)=O)CC2)c2ccccc21
- Papp [5]: 18 ×10⁻⁶ cm/s
- Intrinsic activity [7]: 94%
- Ratio Ki [8]: 240
- EC50 [16]: 0.794 nM
- inhibition at 3 µM [25]: 7%
- Ki [28]: 7.94 nM
- half-life [29]: > 1.5 h

Structure (SMILES): CC(C)n1nc(C(=O)N[C@H]2C[C@H]3CC[C@@H](C2)N3CCCCCCN2CCN(S(C)(=O)=O)CC2)c2ccccc21
- Intrinsic activity [7]: 75%
- Ratio Ki [8]: 3.6
- EC50 [16]: 12.6 nM
- Ki [28]: 2.51 nM

Structure (SMILES): CC(C)N(C)CC(O)CN1[C@@H]2CC[C@H]1C[C@@H](NC(=O)c1nn(C(C)C)c3ccccc13)C2 (stereo not given in full)
- Papp [5]: 26 ×10⁻⁶ cm/s
- Intrinsic activity [7]: 78%
- Ratio Ki [8]: 6300
- EC50 [16]: 5.01 nM
- inhibition at 3 µM [25]: 29%
- Ki [28]: 3.98 nM
- half-life [29]: > 1.5 h

Structure (SMILES): CC(C)n1c(=O)c(C(=O)N[C@H]2C[C@H]3CC[C@@H](C2)N3C[C@@H](O)CN2CCN(S(C)(=O)=O)CC2)cc2ccccc21
- EC50 [3]: 3.98 nM
- Intrinsic activity [4]: > 100%
- Intrinsic activity [6]: > 100%
- Ratio Ki [8]: 7400
- EC50 [9]: 2 nM
- ED50 [27]: 0.142 mg/kg

Structure (SMILES): CC(C)N(C)CCCCCCN1[C@@H]2CC[C@H]1C[C@@H](NC(=O)c1nn(C(C)C)c3ccccc13)C2
- Intrinsic activity [7]: 92%
- Ratio Ki [8]: 23
- EC50 [16]: 5.01 nM
- Ki [28]: 1 nM

Structure (SMILES): COc1cc(N)c(Cl)cc1C(=O)N[C@H]1CCN(CCCOc2ccc(F)cc2)C[C@H]1OC (relative stereo) [REL-CISAPRIDE]
- Intrinsic activity [7]: 117%
- t1/2 [30]: 0.783 h
